Measurements reported in patent US9347934B2, “Assays for identifying compounds that modulate bitter taste” (CHROMOCELL CORPORATION, priority 2011, dated 2016).

Columns and labels:
Assay type in all cases: cell-based
TAS2R5 = target: T1, TAS2R5 (Homo sapiens, UniProt Q9NYW4); assay: Calcium fluorescence functional assay, TAS2R5 cell line; details: 20 mM tastant; cell line expressing human TAS2R5 and mouse Gα15
T1 construct: expressed in transfected cells
T1 sequence (Q9NYW4 1-299): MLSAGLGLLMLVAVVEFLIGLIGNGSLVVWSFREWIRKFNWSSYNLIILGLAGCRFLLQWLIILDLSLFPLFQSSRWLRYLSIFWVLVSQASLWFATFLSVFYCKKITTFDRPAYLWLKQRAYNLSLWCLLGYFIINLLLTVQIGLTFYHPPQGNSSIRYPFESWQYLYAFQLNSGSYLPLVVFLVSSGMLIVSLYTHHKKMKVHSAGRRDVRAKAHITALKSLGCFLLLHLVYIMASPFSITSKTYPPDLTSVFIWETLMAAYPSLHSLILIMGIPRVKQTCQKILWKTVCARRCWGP
Method: (§1) Accordingly, each cell line of the panel expressed a human bitter taste receptor and mouse Gα15 signaling protein.
(§2) Probenecid was not included in the load solution.
(§3) After dye loading, cell plates were placed in a fluorescent plate reader (e.g., FDSS6000 (Hamamatsu, Japan)) and receptor stimulation was measured by adding 50 ul of 3× concentrated ligand/agonist stock. Fluorescence was monitored continuously for 10 s before agonist addition and for 100-250 s after stimulation with agonist.
(§4) Receptor Activation is defined as follows: % Activation=[((Maximum signal fluorescence−Minimum signal fluorescence)−(Maximum control fluorescence−Minimum control fluorescence))/(Maximum buffer fluorescence−Minimum buffer fluorescence)]*100 Functional Response=[(Maximum signal fluorescence−Minimum signal fluorescence)−(Maximum control fluorescence−Minimum control fluorescence)] • Signal Fluorescence: refers to the change in fluorescence seen with addition of ligand • Control fluorescence: refers to the change in fluorescence seen with addition of buffer (negative control) • Calcium signals from ligand and control were normalized to the basal fluorescence of the cells prior to the stimulation.
(§5) A concentration analysis was performed and EC50 values were calculated by nonlinear regression using the formula: Y=Bottom+(Top-Bottom)/(1+10^((Log EC50-X)*Hill Slope)), X=log of dose or concentration, Y=Response (increasing as X increases), Top=maximum signal, Bottom=minimum signal.

TAS2R8 = target: T2, TAS2R8 (Homo sapiens, UniProt Q9NYW2); assay: Calcium fluorescence functional assay, TAS2R8 cell line; details: 20 mM tastant; cell line expressing human TAS2R8 and mouse Gα15
T2 construct: expressed in transfected cells
T2 sequence (Q9NYW2 1-309): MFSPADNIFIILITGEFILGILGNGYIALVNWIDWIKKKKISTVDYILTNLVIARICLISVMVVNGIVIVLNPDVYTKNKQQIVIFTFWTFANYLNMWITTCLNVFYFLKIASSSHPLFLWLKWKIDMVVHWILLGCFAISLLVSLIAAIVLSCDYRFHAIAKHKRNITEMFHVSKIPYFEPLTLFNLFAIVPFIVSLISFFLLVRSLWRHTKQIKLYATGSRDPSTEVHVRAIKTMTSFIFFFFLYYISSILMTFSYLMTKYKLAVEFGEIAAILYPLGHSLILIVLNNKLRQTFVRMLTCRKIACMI
Method: as §1, §2, §3, §4, §5

TAS2R13 = target: T3, TAS2R13 (Homo sapiens, UniProt Q9NYV9); assay: Calcium fluorescence functional assay, TAS2R13 cell line; details: for TAS2R13 bitter taste receptor activity (changes in intracellular calcium): 20 mM tastant, cell line expressing human TAS2R13 and mouse Gα15
T3 construct: expressed in transfected cells
T3 sequence (Q9NYV9 1-303): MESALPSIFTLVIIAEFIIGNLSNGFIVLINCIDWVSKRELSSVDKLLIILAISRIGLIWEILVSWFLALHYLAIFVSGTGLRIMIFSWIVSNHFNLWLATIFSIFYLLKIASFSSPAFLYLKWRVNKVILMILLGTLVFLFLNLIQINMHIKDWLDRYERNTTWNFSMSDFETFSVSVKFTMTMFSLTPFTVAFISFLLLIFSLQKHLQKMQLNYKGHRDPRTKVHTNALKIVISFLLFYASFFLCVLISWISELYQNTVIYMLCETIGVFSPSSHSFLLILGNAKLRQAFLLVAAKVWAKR
Method: as §1, §2, §3, §4, §5

TAS2R38 = target: T4, TAS2R38 (Homo sapiens, UniProt P59533); assay: Calcium fluorescence functional assay, TAS2R38 cell line; details: 20 mM tastant; cell line expressing human TAS2R38 and mouse Gα15
T4 construct: expressed in transfected cells
T4 sequence (P59533 1-333): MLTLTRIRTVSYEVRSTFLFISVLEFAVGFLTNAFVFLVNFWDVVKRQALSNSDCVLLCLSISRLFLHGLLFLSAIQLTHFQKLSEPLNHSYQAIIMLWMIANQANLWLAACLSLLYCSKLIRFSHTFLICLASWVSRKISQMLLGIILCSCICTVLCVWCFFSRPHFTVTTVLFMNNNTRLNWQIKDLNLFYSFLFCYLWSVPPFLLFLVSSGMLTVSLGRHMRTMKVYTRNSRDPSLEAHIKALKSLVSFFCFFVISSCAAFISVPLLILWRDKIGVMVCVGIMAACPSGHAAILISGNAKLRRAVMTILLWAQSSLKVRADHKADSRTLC
Method: as §1, §2, §3, §4, §5

TAS2R39 = target: T5, TAS2R39 (Homo sapiens, UniProt P59534); assay: Calcium fluorescence functional assay, TAS2R39 cell line; details: 20 mM tastant; cell line expressing human TAS2R39 and mouse Gα15
T5 construct: expressed in transfected cells
T5 sequence (P59534 1-338): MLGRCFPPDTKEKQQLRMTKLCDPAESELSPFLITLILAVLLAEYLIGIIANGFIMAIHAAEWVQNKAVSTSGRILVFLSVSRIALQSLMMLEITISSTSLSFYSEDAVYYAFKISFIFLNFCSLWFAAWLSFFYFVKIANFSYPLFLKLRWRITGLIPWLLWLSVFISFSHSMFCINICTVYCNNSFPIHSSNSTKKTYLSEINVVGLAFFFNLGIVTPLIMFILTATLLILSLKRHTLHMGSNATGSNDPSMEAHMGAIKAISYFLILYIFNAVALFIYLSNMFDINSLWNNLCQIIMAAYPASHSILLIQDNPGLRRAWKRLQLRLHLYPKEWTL
Method: as §1, §2, §3, §4, §5

TAS2R48 = target: T6, TAS2R48 (Homo sapiens, UniProt P59542); assay: Calcium fluorescence functional assay, TAS2R48 cell line; details: 20 mM tastant; cell line expressing human TAS2R48 and mouse Gα15
T6 construct: expressed in transfected cells
T6 sequence (P59542 1-299): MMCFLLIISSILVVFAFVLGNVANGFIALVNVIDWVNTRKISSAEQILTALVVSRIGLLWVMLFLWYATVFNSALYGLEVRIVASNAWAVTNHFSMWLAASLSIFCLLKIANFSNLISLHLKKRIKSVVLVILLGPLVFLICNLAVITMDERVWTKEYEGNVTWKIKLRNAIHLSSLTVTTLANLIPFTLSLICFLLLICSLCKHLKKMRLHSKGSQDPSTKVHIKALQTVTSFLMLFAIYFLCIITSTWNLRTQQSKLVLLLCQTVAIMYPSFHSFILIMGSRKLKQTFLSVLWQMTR
Method: as §1, §2, §3, §4, §5

SMILES	TAS2R5 bitter taste receptor activity (changes in intracellular calcium) (TAS2R5)	TAS2R8 bitter taste receptor activity (changes in intracellular calcium) (TAS2R8)	TAS2R13 bitter taste receptor activity (changes in intracellular calcium) (TAS2R13)	TAS2R38 bitter taste receptor activity (changes in intracellular calcium) (TAS2R38)	TAS2R39 bitter taste receptor activity (changes in intracellular calcium) (TAS2R39)	TAS2R48 bitter taste receptor activity (changes in intracellular calcium) (TAS2R48)	EC50 (TAS2R13; increasing concentrations of KCl, TAS2R13 cell line (FIG. 3), read-out: EC50 value, activation of TAS2R13)
CC1=CC(=O)NS(=O)(=O)O1 [Acesulfame K]	did not induce	did not induce	induced	did not induce	did not induce	did not induce	
[Cl-].[K+] [KCl, potassium chloride]	did not induce	did not induce	induced	did not induce	did not induce	did not induce	5 to 15 mM
CC(O)C(=O)[O-].[K+] (stereo not shown) [Potassium lactate, potassium lactate]	did not induce	did not induce	induced	did not induce	did not induce	did not induce	
